Test system: placental gene expression

## CCO [alcohol]
5% alcohol group, Mean Contr 4.981165
  Mean 5%, probe set 1385639_at: 4.504
5% alcohol group, Mean Contr 5.05511
  Mean 5%, Inpp1 (1394340_at): 4.704
5% alcohol group, Mean Contr 5.19844
  Mean 5%, RT1-Aw2 (1379496_at): 4.65
5% alcohol group, Mean Contr 5.228085
  Mean 5%, Trp53rk_predicted (1379488_at): 4.923
5% alcohol group, Mean Contr 5.277582
  Mean 5%, Enpp5 (1388926_at): 4.894
5% alcohol group, Mean Contr 5.346211
  Mean 5%, Prdm2_mapped (1381229_at): 4.872
5% alcohol group, Mean Contr 5.471081
  Mean 5%, RGD1564011_predicted (1375191_at): 5.008
5% alcohol group, Mean Contr 5.497342
  Mean 5%, Centa2 (1369725_at): 5.089
5% alcohol group, Mean Contr 5.574571
  Mean 5%, Transcribed locus (1383789_at): 5.342
5% alcohol group, Mean Contr 5.585624
  Mean 5%, Transcribed locus (1392286_at): 5.242
5% alcohol group, Mean Contr 5.601581
  Mean 5%, Mcpt6 (1387334_at): 5.206
5% alcohol group, Mean Contr 5.646626
  Mean 5%, Ggps1 (1377866_a_at): 5.273
5% alcohol group, Mean Contr 5.751838
  Mean 5%, Transcribed locus (1389718_at): 5.09
5% alcohol group, Mean Contr 5.80011
  Mean 5%, Transcribed locus (1377021_at): 5.149
5% alcohol group, Mean Contr 5.816824
  Mean 5%, Cp (1368418_a_at): 5.332
5% alcohol group, Mean Contr 5.867879
  Mean 5%, LOC303515 (1383571_at): 5.339
5% alcohol group, Mean Contr 5.875325
  Mean 5%, Transcribed locus (1389111_at): 5.42
5% alcohol group, Mean Contr 5.991591
  Mean 5%, Transcribed locus (1393980_at): 5.335
5% alcohol group, Mean Contr 6.083112
  Mean 5%, Pcmtd2_predicted (1374454_at): 5.464
5% alcohol group, Mean Contr 6.105485
  Mean 5%, Plek (1390687_at): 5.536
5% alcohol group, Mean Contr 6.195992
  Mean 5%, Cdca7 (1374540_at): 5.287
5% alcohol group, Mean Contr 6.258107
  Mean 5%, Cul2_predicted (1378127_at): 5.629
5% alcohol group, Mean Contr 6.259265
  Mean 5%, Pex6 (1368264_at): 5.664
5% alcohol group, Mean Contr 6.298338
  Mean 5%, St3gal3 (1373607_at): 5.956
5% alcohol group, Mean Contr 6.314496
  Mean 5%, Kbtbd4_predicted (1374614_at): 5.868
5% alcohol group, Mean Contr 6.483711
  Mean 5%, Phyh (1393245_at): 5.646
5% alcohol group, Mean Contr 6.526312
  Mean 5%, LOC287533 (1373627_at): 5.83
5% alcohol group, Mean Contr 6.549543
  Mean 5%, Transcribed locus (1388465_at): 6.133
5% alcohol group, Mean Contr 6.629539
  Mean 5%, Mss4 (1376745_at): 6.082
5% alcohol group, Mean Contr 6.670053
  Mean 5%, Plag1 (1391714_at): 5.859
5% alcohol group, Mean Contr 6.839621
  Mean 5%, Sumf1_predicted (1389833_at): 6.464
5% alcohol group, Mean Contr 6.849002
  Mean 5%, Polr3e_predicted (1374415_at): 6.356
5% alcohol group, Mean Contr 6.859582
  Mean 5%, RGD1308959 (1399108_at): 6.437
5% alcohol group, Mean Contr 6.895168
  Mean 5%, Wig1 (1387021_at): 6.437
5% alcohol group, Mean Contr 6.970231
  Mean 5%, probe set 1379314_at: 6.195
5% alcohol group, Mean Contr 6.981191
  Mean 5%, Ddx59 (1383635_at): 6.627
5% alcohol group, Mean Contr 7.018906
  Mean 5%, Rnd3 (1394077_at): 6.516
5% alcohol group, Mean Contr 7.020197
  Mean 5%, probe set 1393037_at: 6.711
5% alcohol group, Mean Contr 7.252498
  Mean 5%, Slc39a4_predicted (1374366_at): 6.553
5% alcohol group, Mean Contr 7.300542
  Mean 5%, RGD1305243_predicted (1374076_at): 6.98
5% alcohol group, Mean Contr 7.364799
  Mean 5%, Transcribed locus (1393310_at): 6.579
5% alcohol group, Mean Contr 7.420203
  Mean 5%, Gusb (1367901_at): 6.975
5% alcohol group, Mean Contr 7.435411
  Mean 5%, probe set 1392953_at: 6.789
5% alcohol group, Mean Contr 7.471023
  Mean 5%, Crsp9_predicted (1377263_at): 6.737
5% alcohol group, Mean Contr 7.588214
  Mean 5%, probe set 1389582_at: 6.742
5% alcohol group, Mean Contr 7.705027
  Mean 5%, Transcribed locus (1393226_at): 6.779
5% alcohol group, Mean Contr 7.731478
  Mean 5%, RGD1565289_predicted (1375297_at): 6.938
5% alcohol group, Mean Contr 8.125942
  Mean 5%, Zfp207 (1394591_at): 7.43
5% alcohol group, Mean Contr 8.276972
  Mean 5%, Akr7a2 (1367843_at): 7.547
5% alcohol group, Mean Contr 8.308305
  Mean 5%, Tparl (1373392_at): 8.164
5% alcohol group, Mean Contr 8.623529
  Mean 5%, Mcts1 (1388660_at): 8.191
5% alcohol group, Mean Contr 8.793343
  Mean 5%, Hadhsc (1370237_at): 8.481
5% alcohol group, Mean Contr 9.074708
  Mean 5%, Asah1 (1374770_at): 8.62
5% alcohol group, Mean Contr 9.55972
  Mean 5%, Arts1 (1368356_a_at): 9.182
5% alcohol group, Mean Contr 10.12286
  Mean 5%, Ndufb5_predicted (1388304_at): 9.747
5% alcohol group, Mean Contr 10.24563
  Mean 5%, MGC72992 (1389325_at): 9.919
5% alcohol group, Mean Contr 10.46183
  Mean 5%, Vps35_mapped (1372806_at): 10.13
10% alcohol group, Mean Contr 4.981165
  Mean 10%, probe set 1385639_at: 4.259
10% alcohol group, Mean Contr 5.05511
  Mean 10%, Inpp1 (1394340_at): 4.269
10% alcohol group, Mean Contr 5.19844
  Mean 10%, RT1-Aw2 (1379496_at): 4.376
10% alcohol group, Mean Contr 5.228085
  Mean 10%, Trp53rk_predicted (1379488_at): 4.494
10% alcohol group, Mean Contr 5.277582
  Mean 10%, Enpp5 (1388926_at): 4.551
10% alcohol group, Mean Contr 5.346211
  Mean 10%, Prdm2_mapped (1381229_at): 4.661
10% alcohol group, Mean Contr 5.471081
  Mean 10%, RGD1564011_predicted (1375191_at): 4.639
10% alcohol group, Mean Contr 5.497342
  Mean 10%, Centa2 (1369725_at): 4.692
10% alcohol group, Mean Contr 5.574571
  Mean 10%, Transcribed locus (1383789_at): 4.986
10% alcohol group, Mean Contr 5.585624
  Mean 10%, Transcribed locus (1392286_at): 4.791
10% alcohol group, Mean Contr 5.601581
  Mean 10%, Mcpt6 (1387334_at): 4.849
10% alcohol group, Mean Contr 5.646626
  Mean 10%, Ggps1 (1377866_a_at): 4.808
10% alcohol group, Mean Contr 5.751838
  Mean 10%, Transcribed locus (1389718_at): 4.745
10% alcohol group, Mean Contr 5.80011
  Mean 10%, Transcribed locus (1377021_at): 4.752
10% alcohol group, Mean Contr 5.816824
  Mean 10%, Cp (1368418_a_at): 5.05
10% alcohol group, Mean Contr 5.867879
  Mean 10%, LOC303515 (1383571_at): 5.002
10% alcohol group, Mean Contr 5.875325
  Mean 10%, Transcribed locus (1389111_at): 4.794
10% alcohol group, Mean Contr 5.991591
  Mean 10%, Transcribed locus (1393980_at): 4.943
10% alcohol group, Mean Contr 6.083112
  Mean 10%, Pcmtd2_predicted (1374454_at): 4.612
10% alcohol group, Mean Contr 6.105485
  Mean 10%, Plek (1390687_at): 4.933
10% alcohol group, Mean Contr 6.195992
  Mean 10%, Cdca7 (1374540_at): 4.948
10% alcohol group, Mean Contr 6.258107
  Mean 10%, Cul2_predicted (1378127_at): 5.032

Reference: US20090087845A1, “Genetic Markers Of True Low Birth Weight” (priority 2005, published 2009)
